Source: article PMC6985109, “Cellular apoptosis and necrosis as therapeutic targets for novel Eugenol Tosylate Congeners against Candida albicans” (Scientific Reports, 2020)

Columns and labels:
Format in all cases: cell-based, Candida albicans
[1] = system: cytochrome c oxidase activity in C. albicans SC5314, C. albicans 4175 and C. albicans 5112; test: Cytochrome c oxidase activity in mitochondria of treated cells; settings: 3 h, range over three strains
Protocol: (§1) To study the effect of test compounds on apoptotic markers protoplasts were prepared as described previously, with modifications. Briefly, mid-exponential phase cells were harvested and exposed to various concentrations of test compounds (0.5 × MIC, 1 × MIC and 2×MIC) for 3 h. The cells were then washed twice with protoplast buffer- I (1 M sorbitol, 50 mM tris base, 10 mM MgCl2 and 30 mM DTT) and incubated in the same buffer for 15 minutes at 25 °C, followed by centrifugation at 1500 rpm for 5 minutes. Supernatant was removed and cells were incubated with buffer- II (1 M sorbitol, 50 mM tris base, 10 mM MgCl2 and 1 mM DTT) supplemented with lyticase enzyme (≥1 µg/mL) used to digest the cell wall for 1 h at 25 °C. Buffer- II were removed by centrifugation and then cells were incubated with buffer- III (1 M sorbitol, 50 mM tris base and 10 mM MgCl2) for 20 minutes at room temperature. After the incubation cells were again centrifuged at 1500 rpm for 5 minutes and supernatant was discarded. Protoplasts then finally washed once with PBS and re-suspended in the same for further use. In each washing steps the volume of these protoplast buffers were 5 times to cell volume with pH 7.4.
After the cells were exposed to different concentrations of test compounds as mentioned above, mitochondria of the cells were isolated using Yeast Mitochondria Isolation Kit- MITOISO3 (Sigma – Aldrich St. Louis, MO, U.S.A.). Cytochrome c oxidase assay kit (ScienCell, Cat. No. 8278, CA, USA) was used to detect the cytochrome c oxidase activity. In all procedures, kits were used according to the manufacturer’s instructions. Briefly, prepared spheroplasts were followed by homogenization to release the mitochondria. Homogenate was centrifuged in 1X storage buffer (1 ml) at 6,500 × g for 10 minutes at 2–8 °C. […] Protein concentration was determined by using TCA Lowry method. […] Immediately change in absorbance of cytochrome c was measured at 550 nm on a kinetic program (duration 30 seconds, interval 5 seconds) by using UV-1800 SHIMADZU spectrophotometer (Shimadzu Corporation, Japan).

[2] = system: C. albicans SC5314, C. albicans 4175 and C. albicans 5112; test: JC-10 mitochondrial membrane potential assay; settings: 3 h, range over three strains, vs untreated control
Protocol: as §1
For the detection of mitochondrial membrane potential changes in cells exposed with different concentrations of active tosylate congeners, the JC-10 mitochondrial membrane potential assay kit–microplate (abcam, Cambridge, UK) was used according to the manufacturer’s instructions. Protoplasts were prepared as described above at a concentration of 1 × 10^6 cells/ml. 90 µl of this suspension was added to each well in 96-well microplate (with black wall and clear bottom) followed by addition of 50 µl/well JC-10 dye-loading solution. […] Fluorescence intensity were monitored at Ex/Em = 490/525 nm and 540/590 nm with a BioTek Synergy HT microplate reader (BioTek Instruments, WA, USA) for ratio analysis. The ratio between aggregate (Em = 525 nm) and monomeric forms (Em = 590 nm) of JC-10, were measured to find the change in mitochondrial membrane potential. […]

[3] = system: C. albicans 4175, C. albicans 5112 and C. albicans SC5314; test: FITC annexin V/PI staining flow cytometry, ranges over three strains; settings: range over 0.5 × MIC, 1 × MIC, 2 × MIC and three strains
Protocol: as §1
This assay was used to identify early apoptosis by detecting movement of phosphatidylserine (PS) from the inner to the outer leaflet of plasma membrane. FITC annexin V Apoptosis Detection Kit I (BD Biosciences, CA, USA) was used according to the manufacturer’s instructions. Protoplasts of C. albicans cells treated with different concentrations of the test compounds, as mentioned in above section, were resuspended in 1X annexin V binding buffer ([…]) at a concentration of 1 × 10^6 cells per ml. To the 100 µl of this solution, 5 µl each of FITC annexin V and propidium iodide (PI) was added. Tubes were gently vortexed and incubated for 15 minutes at 25 °C in the dark. After incubation, 400 µl of 1X annexin V binding buffer was added to each tube and analyzed using the BD LSRFortessa Flow cytometer (Becton Dickinson, NJ, USA). The cell populations in four different quadrants of a quadrant dot plot were analyzed and interpreted as; Q1: necrosis (annexin V^−/PI^+), Q2: late apoptosis (annexin V^+/PI^+), Q3: early apoptosis (annexin V^+/PI^−) and Q4: viable cells (annexin V^−/PI^−), by using software FlowJo_V10.

## C=CCc1ccc(OS(=O)(=O)c2ccc(C(=O)O)cc2)c(OC)c1 [ETC-7, 4-{[2-methoxy-4-(prop-2-en-1-yl)phenoxy]sulfonyl}benzoic acid]
[1]; 0.5 × MIC
  cytochrome c oxidase enzyme activity decreased up to: 11.33–18.07%
[1]; 1 × MIC
  cytochrome c oxidase enzyme activity decreased up to: 9.20–13.92%
[1]; 2 × MIC
  cytochrome c oxidase enzyme activity decreased up to: 5.21–9.88%
[2]; 0.5 × MIC
  decrease in mitochondrial membrane potential: 1.04–1.58 folds
[2]; 1 × MIC
  decrease in mitochondrial membrane potential: 1.56–2.62 folds
[2]; 2 × MIC
  decrease in mitochondrial membrane potential: 3.55–4.46 folds
[3]
  early apoptosis: 8–32%
  late apoptosis: 2–26%
  necrosis: 1–31%
